# The source made the active and inactive calls. The calls are words filed in the database; no cut-off is given here.
# Legend:
# [1] = Selectivity index, ratio of IC50 for mouse NCTC-929 cells to IC50 for Trypanosoma cruzi Y trypomastigotes; type: toxicity; details: NCTC-929 cells versus Trypanosoma cruzi Y trypomastigotes, read-out: Ratio IC50
# Leishmania infantum [2] = experiment: Antileishmanial activity against Leishmania infantum MHOM/BR/1972/LD promastigotes assessed as parasite viability up to 200 uM after 48 hrs by MTT assay; type: functional, organism-based
# Trypanosoma cruzi [3] = experiment: Antitrypanosomal activity against Trypanosoma cruzi Y trypomastigotes assessed as parasite viability after 24 hrs by resazurin staining-based hemocytometric analysis; type: functional, organism-based
# L929 = experiment: Cytotoxicity against mouse NCTC-929 cells after 72 hrs by MTT assay; type: cell-based; details: L929, 72 h
# Leishmania infantum [4] = experiment: Antileishmanial activity against Leishmania infantum MHOM/BR/1972/LD amastigotes infected in BALB/c mouse peritoneal macrophages assessed as parasite viability up to 200 uM after 72 hrs by Giemsa staining-based light microscopic analysis; type: functional, organism-based
# Leishmania infantum [5] = experiment: Antileishmanial activity against Leishmania infantum MHOM/BR/1972/LD amastigotes infected in BALB/c mouse peritoneal macrophages assessed as parasite viability after 72 hrs by Giemsa staining-based light microscopic analysis; type: functional, organism-based
# Leishmania infantum [6] = experiment: Antileishmanial activity against Leishmania infantum MHOM/BR/1972/LD promastigotes assessed as parasite viability after 48 hrs by MTT assay; type: functional, organism-based
# Trypanosoma cruzi [7] = experiment: Antitrypanosomal activity against Trypanosoma cruzi Y trypomastigotes assessed as parasite viability up to 200 uM after 24 hrs by resazurin staining-based hemocytometric analysis; type: functional, organism-based
# [8] = Selectivity index, ratio of IC50 for mouse NCTC-929 cells to IC50 for Leishmania infantum MHOM/BR/1972/LD amastigotes infected in BALB/C mouse peritoneal macrophages; type: toxicity; details: read-out: Ratio IC50
# Trypanosoma cruzi [9] = experiment: Induction of plasma membrane permeabilization in Trypanosoma cruzi Y trypomastigotes at IC50 to IC90 measured every 1 hr up to 7 hrs by Sytox Green staining-based fluorimetric analysis; type: functional, organism-based
# Mus musculus [10] = experiment: Hepatotoxicity in BALB/c mouse infected with Trypanosoma cruzi Y assessed as hydropic degeneration of hepatocytes at 30 mg/kg/day, ip dosed for 10 consecutive days by hematoxylin and eosin staining-based light microscopic analysis; type: toxicity, organism-based; details: in vivo
# Trypanosoma cruzi [11] = experiment: Induction of mitochondrial membrane hyperpolarization in Trypanosoma cruzi Y trypomastigotes assessed as increase in fluorescence at IC50 after 2 hrs by rhodamine123/propidium iodide staining-based flow cytometric analysis relative to control; type: functional
# Trypanosoma cruzi [12] = experiment: Antitrypanosomal activity against Trypanosoma cruzi Y infected in BALB/c mouse assessed as reduction in blood parasitemia at 30 mg/kg, ip administered every day starting on day 5 post infection measured on day 8 post infection; type: functional, organism-based
# Trypanosoma cruzi [13] = experiment: Antitrypanosomal activity against Trypanosoma cruzi Y intracellular amastigotes infected in BALB/c mouse peritoneal macrophages at 25 uM after 48 hrs by Giemsa staining-based light microscopic analysis; type: functional
# Trypanosoma cruzi [14] = experiment: Induction of mitochondrial membrane hyperpolarization in Trypanosoma cruzi Y trypomastigotes assessed as increase in fluorescence at IC90 after 2 hrs by rhodamine123/propidium iodide staining-based flow cytometric analysis relative to control; type: functional
# Mus musculus [15] = experiment: Toxicity in BALB/c mouse infected with Trypanosoma cruzi Y assessed as mortality at 30 mg/kg/day, ip administered for 10 consecutive days starting on day 5 post infection measured during compound dosing; type: organism-based; details: in vivo
# Trypanosoma cruzi [16] = experiment: Induction of mitochondrial membrane hyperpolarization in Trypanosoma cruzi Y trypomastigotes after 1 hr by rhodamine123/propidium iodide staining-based flow cytometric analysis; type: functional, organism-based
# Trypanosoma cruzi [17] = experiment: Antitrypanosomal activity against Trypanosoma cruzi Y infected in BALB/c mouse assessed as reduction in blood parasitemia at 30 mg/kg/day, ip dosed administered for 10 consecutive days starting on day 5 post infection measured on day 14 post infection relative to control; type: functional; set-up: scale not given: the % may be the effect or the level left
# Trypanosoma cruzi [18] = experiment: Potency index, ratio of benznidazole IC50 to test compound IC50 for Trypanosoma cruzi Y trypomastigotes; type: functional
# Mus musculus [19] = experiment: Toxicity in BALB/c mouse infected with Trypanosoma cruzi Y assessed as mortality at 100 mg/kg/day, po administered for 10 consecutive days starting on day 5 post infection measured during compound dosing; type: organism-based; details: in vivo
# Trypanosoma cruzi [20] = experiment: Antitrypanosomal activity against Trypanosoma cruzi Y infected in BALB/c mouse assessed as reduction in blood parasitemia at 100 mg/kg, po administered every day starting on day 5 post infection measured on day 8 post infection; type: functional; set-up: scale not given: the % may be the effect or the level left
# Trypanosoma cruzi [21] = experiment: Antitrypanosomal activity against Trypanosoma cruzi Y infected in BALB/c mouse assessed as reduction in blood parasitemia at 100 mg/kg/day, […] dosed administered for 10 consecutive days starting on day 5 post infection measured on day 14 post infection relative to control; type: functional; set-up: scale not given: the % may be the effect or the level left
SMILES,selectivity ratio [1],Activity (Leishmania infantum [2]),IC50 (Trypanosoma cruzi [3]),IC50 (L929),Activity (Leishmania infantum [4]),Activity (Trypanosoma cruzi [7]),further results
Cc1cc(O)c(CCC2CCCCC2)c(=O)o1,3.4,inactive,32.2 µM,109 µM,inactive,–,–
CCCCCCCCCCCCCCCCOP(=O)([O-])OCC[N+](C)(C)C [MILTEFOSINE],32.6,–,–,241 µM,–,–,IC50 (Leishmania infantum [5]): 7.4 µM; IC50 (Leishmania infantum [6]): 16.2 µM
Cc1cc(O)c(C(=O)C2CCCCC2)c(=O)o1,–,inactive,–,> 200 µM,inactive,inactive,–
Cc1cc(O)c(C(=O)CCC2CCCCC2)c(=O)o1,26.8,inactive,4.4 µM,117 µM,–,–,IC50 (Leishmania infantum [5]): 39.2 µM; selectivity ratio [8]: 2.9
CCCCCCCCCCCCCCc1c(O)cc(C)oc1=O,4.9,inactive,4.9 µM,24.1 µM,inactive,–,–
CCCCCCCCCCCCCCCCc1c(O)cc(C)oc1=O,1.4,inactive,26.6 µM,38.2 µM,inactive,–,–
CCCCCCCCCCCCCCCC(=O)c1c(O)cc(C)oc1=O,2.5,inactive,66.3 µM,164 µM,inactive,–,–
CCCCCCCCCCCCCC(=O)c1c(O)cc(C)oc1=O,> 77.5,inactive,2.6 µM,> 200 µM,inactive,–,Activity (Trypanosoma cruzi [9]): inactive; Activity (Mus musculus [10]): Non-Toxic; Activity (Trypanosoma cruzi [11]): 25%; Activity (Trypanosoma cruzi [12]): inactive; Activity (Trypanosoma cruzi [13]): 14%; Activity (Trypanosoma cruzi [14]): 26%; Activity (Mus musculus [15]): Non-Toxic; Activity (Trypanosoma cruzi [16]): Dose-dependent effect; Activity (Trypanosoma cruzi [17]): 55%; Ratio IC50 (Trypanosoma cruzi [18]): 6
CCCCCCCCCCCCc1c(O)cc(C)oc1=O,3.5,–,16.1 µM,57.2 µM,inactive,–,IC50 (Leishmania infantum [6]): 138 µM
CCCCCCCCCC(=O)c1c(O)cc(C)oc1=O,7.6,inactive,17.5 µM,134 µM,inactive,–,–
O=C(Cn1ccnc1[N+](=O)[O-])NCc1ccccc1 [BENZNIDAZOLE],> 36,–,16.2 µM,> 200 µM,–,–,Activity (Mus musculus [19]): Non-Toxic; Activity (Trypanosoma cruzi [20]): 100%; Activity (Trypanosoma cruzi [21]): 100%
CCCCCCNC(=O)c1c(O)cc(C)oc1=O,2.7,inactive,72.6 µM,196 µM,–,–,IC50 (Leishmania infantum [5]): 54 µM; selectivity ratio [8]: 3.6
Cc1cc(O)c(C(=O)NCc2ccccc2)c(=O)o1,–,inactive,–,> 200 µM,–,inactive,IC50 (Leishmania infantum [5]): 52.8 µM; selectivity ratio [8]: 5
CCCCCCCNC(=O)c1c(O)cc(C)oc1=O,2.4,inactive,78.1 µM,187 µM,inactive,–,–
CCCCCCCCCCc1c(O)cc(C)oc1=O,–,–,–,56 µM,inactive,inactive,IC50 (Leishmania infantum [6]): 118 µM
Cc1cc(O)c(C(=O)NCCc2ccccc2)c(=O)o1,–,inactive,–,178 µM,–,inactive,IC50 (Leishmania infantum [5]): 46.8 µM; selectivity ratio [8]: 3.8
Cc1cc(O)c(C(=O)Nc2ccccc2)c(=O)o1,–,inactive,–,> 200 µM,inactive,inactive,–
CCCCCCCCCCCC(=O)c1c(O)cc(C)oc1=O,71.1,inactive,1.3 µM,90.3 µM,inactive,–,–
Cc1cc(O)c(C(=S)Nc2ccccc2)c(=O)o1,–,inactive,–,> 200 µM,–,inactive,IC50 (Leishmania infantum [5]): > 100 µM
CCCCCCCCCCCCCCNC(=O)c1c(O)cc(C)oc1=O,–,inactive,–,> 200 µM,inactive,inactive,–
Cc1cc(O)c(C(=O)NCCCc2ccccc2)c(=O)o1,1.7,inactive,81.4 µM,143 µM,inactive,–,–
CCCCCCCCc1c(O)cc(C)oc1=O,3.6,inactive,40 µM,145 µM,inactive,–,–
CCCCCCCC(=O)c1c(O)cc(C)oc1=O,5.4,inactive,25.7 µM,140 µM,inactive,–,–
Cc1cc(O)c(C(=S)NC2CCCCC2)c(=O)o1,1.9,inactive,90.5 µM,177 µM,inactive,–,–
Cc1cc(O)c(C(=O)Nc2ccc3c(c2)OCO3)c(=O)o1,–,inactive,–,> 200 µM,inactive,inactive,–
CCCCCC(=O)c1c(O)cc(C)oc1=O,–,inactive,–,> 200 µM,–,inactive,IC50 (Leishmania infantum [5]): 13.8 µM; selectivity ratio [8]: > 14.5
Cc1cc(O)c(C(=O)Nc2ccc(OCc3ccccc3)cc2)c(=O)o1,–,inactive,–,> 200 µM,inactive,inactive,–
CCCCCCc1c(O)cc(C)oc1=O,–,inactive,–,> 200 µM,inactive,inactive,–
Cc1cc(O)c(CC2CCCCC2)c(=O)o1,–,inactive,–,> 200 µM,inactive,inactive,–

# Reference: ChEMBL document CHEMBL4130430, “Efficacy of a series of alpha-pyrone derivatives against Leishmania (L.) infantum and Trypanosoma cruzi” (Eur J Med Chem, 2017)
